Results reported in publication PMC8234231, “In Vitro Inhibition of Renal OCT2 and MATE1 Secretion by Antiemetic Drugs” (International Journal of Molecular Sciences, 2021).
“Also recorded” adds a separate entry of the source.

Assays:
[1] = tested on: vector control MDCK cells; experiment: Intracellular accumulation of ASP+ in vector control MDCK cells; format: cell-based, canine; settings: 120 min
Protocol: (§1) Cells were incubated with 5-HT3 antagonists in the apical chamber in HBSS pH 6.0 and 5-HT3 antagonists with ASP^+ (25 μM) in the basolateral chamber in HBSS pH 7.4 and incubated at 37 °C for 120 min. To measure time-dependent transcellular transport, an aliquot of the incubation medium (100 μL) from the apical chamber (receiving chamber) was collected at 40, 60, 90, and 120 min and replaced with an equal volume of fresh buffer containing 5-HT3 antagonist or the positive control chemical at the original concentration. […] Cells were lysed with 1% Triton X-100. […] Experiments were performed in three individual Transwell inserts.

human OCT2 and MATE1 [2] = experiment: Intracellular accumulation of ASP+ in OCT2/MATE1 double-transfected MDCK cells; format: cell-based; settings: 120 min
Protocol: as §1

[3] = no reference given, cited from earlier work
OCT2 and MATE1 = experiment: Inhibition of basolateral-to-apical transcellular transport of ASP+ in OCT2/MATE1 double-transfected MDCK cells (Transwell); settings: human, probe ASP+ (25 μM, basolateral chamber)
Protocol: (§2) Control and OCT2/MATE1-expressing MDCK cells were evaluated for protein expression of OCT2 and MATE1 using SDS-PAGE and western blotting with specific primary antibodies (OCT2, sc292622 1:500 and MATE1, sc133390 1:250, Santa Cruz Biotechnology, Santa Cruz, CA, USA), followed by an antirabbit HRP-conjugated secondary antibody (1:1000, Sigma Aldrich, St. Louis, MO, USA) and Super Signal Western Dura Extended Duration Substrate (Pierce Biotechnology, Rockford, IL, USA). Detection was performed with a FluorChem imager (ProteinSimple, Santa Clara, CA, USA). Both MDCK cell lines were seeded on 0.4 μm transwell inserts (VWR, Radnor, PA, USA) at a density of 2 × 10^5 cells/cm^2. Transport experiments were performed 3 to 5 days after seeding. The integrity of MDCK monolayers was verified by measuring transepithelial electrical resistance (TEER) >150 Ω*cm^2 using an epithelial voltohmmeter, EVOM^2 (World Precision Instruments, Sarasota, FL). Proper formation of tight junctions was also verified by measurement of passive permeability of lucifer yellow in the basolateral-to-apical (B-to-A) direction. Lucifer yellow (20 μM) was applied to the basolateral chamber for 1 h, and media were collected from the apical chamber.
(§3) After washing the cells once with Hank’s Buffered Saline Solution (HBSS) pH 7.4, transport studies were initiated after aspirating the wash buffer from both the apical and basal chambers. […] Cells were lysed with 1% Triton X-100. […] Intracellular fluorescence was normalized to total protein concentration of cell lysates from each transwell using the BCA assay. Experiments were performed in three individual Transwell inserts.

human OCT2 and MATE1 [4] = experiment: as above; settings: inhibitor 0.5–20 μM
Protocol: as §2, §3

human OCT2 = target: T1, human OCT2 (Homo sapiens, UniProt O15244); experiment: Inhibition of ASP+ uptake in HEK293 cells overexpressing OCT2; format: cell-based; settings: ASP+ 10 μM
T1 construct: expressed in transfected cells; gift of Dr. Kathy Giacomini, UCSF
T1 sequence (O15244 1-555): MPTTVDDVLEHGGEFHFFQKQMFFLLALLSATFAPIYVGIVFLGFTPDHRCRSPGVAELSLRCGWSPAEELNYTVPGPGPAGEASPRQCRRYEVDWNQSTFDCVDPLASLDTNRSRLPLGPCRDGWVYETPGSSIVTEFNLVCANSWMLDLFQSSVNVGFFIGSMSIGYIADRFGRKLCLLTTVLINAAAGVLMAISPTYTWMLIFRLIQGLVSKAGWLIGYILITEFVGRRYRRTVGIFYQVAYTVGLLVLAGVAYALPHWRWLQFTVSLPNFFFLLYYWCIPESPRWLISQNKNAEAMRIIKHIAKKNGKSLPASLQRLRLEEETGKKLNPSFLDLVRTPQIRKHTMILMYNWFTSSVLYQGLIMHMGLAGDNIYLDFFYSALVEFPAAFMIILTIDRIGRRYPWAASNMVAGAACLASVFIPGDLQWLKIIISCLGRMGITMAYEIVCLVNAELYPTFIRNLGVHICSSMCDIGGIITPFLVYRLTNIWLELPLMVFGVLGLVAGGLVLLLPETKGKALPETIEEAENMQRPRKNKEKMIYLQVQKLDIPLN
Protocol: (§4) After washing once with prewarmed Hank’s Buffered Saline Solution (HBSS), cells were preincubated for 30 min at 37 °C with various 5-HT3 antagonists for OCT2 cells or in a 30 mM NH4Cl solution in HBSS at pH 6.5 for MATE1 cells for intracellular acidification. Uptake into OCT2 cells was initiated through exposure to 10 μM of fluorescent substrate ASP^+ directly in the incubation media. Uptake into MATE1 cells was initiated by application of HBSS at pH 7.4 containing 5-HT3 antagonists and 10 μM of fluorescent substrate ASP^+. […] Media was removed and washed four times with ice-cold HBSS. Cells were lysed with 1% Triton X-100. […] Intracellular fluorescence was normalized to total protein concentration of cell lysates from each well using the bicinchoninic acid (BCA) assay (Pierce Biotechnology, Rockford, IL, USA). Experiments were repeated three separate times, with three to four replicates in each experiment.
(§5) GraphPad Prism v6 (GraphPad Software, La Jolla, CA, USA) was used for statistical analysis.

MATE1 = target: T2, MATE1 (Homo sapiens, UniProt Q96FL8); experiment: Inhibition of ASP+ uptake in HEK293 cells overexpressing MATE1; format: cell-based; settings: inhibitor 10 μM, HEK293-MATE1 (data not shown)
T2 construct: expressed in transfected cells; gift of Dr. Kathy Giacomini, UCSF
T2 sequence (Q96FL8 1-570): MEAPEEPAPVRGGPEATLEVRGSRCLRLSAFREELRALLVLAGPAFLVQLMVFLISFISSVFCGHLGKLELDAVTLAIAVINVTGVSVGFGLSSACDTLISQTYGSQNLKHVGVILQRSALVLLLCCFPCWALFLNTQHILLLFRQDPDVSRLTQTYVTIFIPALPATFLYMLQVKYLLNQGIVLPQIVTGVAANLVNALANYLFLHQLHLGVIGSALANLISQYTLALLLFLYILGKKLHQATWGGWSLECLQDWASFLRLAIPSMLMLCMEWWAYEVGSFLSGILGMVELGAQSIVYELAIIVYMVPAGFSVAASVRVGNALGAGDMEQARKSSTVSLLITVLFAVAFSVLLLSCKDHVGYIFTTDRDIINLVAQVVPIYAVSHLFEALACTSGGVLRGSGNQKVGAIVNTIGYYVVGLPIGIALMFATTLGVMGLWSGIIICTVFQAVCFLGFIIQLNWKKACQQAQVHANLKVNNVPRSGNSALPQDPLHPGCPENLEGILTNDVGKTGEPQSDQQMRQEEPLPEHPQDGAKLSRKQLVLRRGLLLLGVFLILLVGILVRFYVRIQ
Protocol: as §4, §5

[5] = substrate: CN(C)c1ccc(/C=C/c2cc[n+](C)cc2)cc1; experiment: Concentration-dependent uptake of ASP+ in OCT2-expressing HEK293 cells; format: cell-based, human; settings: other: OCT2-expressing HEK293, 0–100 μM, 1 min; 37.0 °C
Protocol: Figure 2 Time and Concentration-Dependent Accumulation of ASP^+ in HEK293 Cells Overexpressing OCT2 or MATE1. HEK cells expressing empty vector (EV), OCT2, or MATE1 were incubated for different time periods (0.5–20 min, 10 μM ASP^+, 37 °C) to evaluate time-dependent uptake (A) or with increasing concentrations of ASP^+ (0–100 μM, 1 min 37 °C) for concentration-dependent uptake (B) on a shaker. Specific transport uptake is shown in dashed lines. Intracellular fluorescence was quantified and normalized to protein concentration. Data are presented as mean ± SE (n = 3).
OCT2- and MATE1-overexpressing HEK293 cells were seeded in clear poly-^D-lysine-coated 24-well plates (Fisher Scientific, Hanover Park, IL, USA) and grown for 24 h until approximately 90% confluent. […]
GraphPad Prism v6 (GraphPad Software, La Jolla, CA, USA) was used for statistical analysis. Km and Vmax were calculated using nonlinear regression (Michaelis–Menten enzyme kinetics equation, (Y = Vmax × X/(Km + X), fit for least squares). Data with two variables were analyzed using a two-way ANOVA followed by a one-way ANOVA and/or Dunnett’s post-hoc test for multiple comparisons. IC50 values were calculated via a nonlinear regression to fit least squares. Differences were considered statistically significant at p < 0.05.

Cc1nccn1CC1CCc2c(c3ccccc3n2C)C1=O (centres unmarked) [Ondansetron]
decrease in accumulation of ASP+ in control cells ([1]; high concentrations of inhibitor): 40%
increase in intracellular ASP+ accumulation (human OCT2 and MATE1 [2]; inhibitor 0.5 and 2.5 μM): 1.3 fold
effect on intracellular ASP+ accumulation (human OCT2 and MATE1 [2]; inhibitor 0.5–20 μM, ASP+ 25 μM): at concentrations of 0.5 and 2.5 μM caused significant intracellular accumulation of ASP^+; also recorded: no difference compared to vehicle at higher concentrations (10 and 20 μM)
half-life [3]: < 6 h
metabolized by cytochrome P450 enzymes in the liver ([3]; range for the named drugs together): 48–95%
inhibition at 120 min, 20 μM (OCT2 and MATE1): 36%
inhibition of basolateral-to-apical transcellular transport of ASP+, up to (human OCT2 and MATE1 [4]): up to 64%
effect on B-to-A transport of ASP+ (human OCT2 and MATE1 [4]; 40–120 min, ASP+ 25 μM): inhibited the B-to-A transport of ASP^+ in a concentration-dependent manner; also recorded: inhibited the basolateral-to-apical ASP^+ secretion at all concentrations tested

Cc1cc2c(s1)Nc1ccccc1N=C2N1CCN(C)CC1 [olanzapine]
effect on intracellular accumulation of ASP+ in control cells ([1]; cimetidine 5 and 50 μM, pyrimethamine 1 μM, olanzapine 20 μM): modest decrease in ASP^+ accumulation
effect on ASP+ uptake in OCT2-expressing HEK293 cells (human OCT2): inhibited OCT2 activity across a range of concentrations
inhibition of MATE1 activity (MATE1): None of these drugs inhibited MATE1 activity
decrease in intracellular accumulation of ASP+ (human OCT2 and MATE1 [2]; inhibitor 20 μM): 51%

B1: human OCT2 (Homo sapiens) (protein)
chain: T1 sequence (O15244 1-555)
notes: expressed in transfected cells; gift of Dr. Kathy Giacomini, UCSF
Km [5]: 2.9 µM
Vmax [5]: 8.1 nmol/mg/min
